Laboratory results: ChEMBL document CHEMBL5325486, “Synthesis of novobiocin derivatives and evaluation of their antigonococcal activity and pharmacokinetics” (Bioorg Med Chem, 2023)
In brackets after ≈: the same amount, converted by molar mass.

Tests used:
[1] = tested on: Staphylococcus aureus; test: Antibacterial activity against Staphylococcus aureus assessed inhibition of bacterial growth; format: functional
[2] = tested on: Neisseria gonorrhoeae; test: Antibacterial activity against resistant Neisseria gonorrhoeae assessed inhibition of bacterial growth; format: functional
[3] = Aqueous solubility of compound in neutral JP2 solution; format: physicochemical
[4] = Metabolic stability in mouse liver microsomes assessed as residual rate; format: ADME, Microsome
[5] = Effective permeability of compound by PAMPA assay; format: ADME; conditions: read-out: Peff
[6] = tested on: Neisseria gonorrhoeae; test: Antibacterial activity against Neisseria gonorrhoeae clinical isolate assessed inhibition of bacterial growth; format: functional
[7] = Aqueous solubility of compound in acidic JP1 solution; format: physicochemical

SMILES: C=Cc1cc(C(=O)Nc2c(O)c3ccc(O[C@@H]4OC(C)(C)[C@H](OC)[C@@H](OC(=O)c5ccc(C)[nH]5)[C@H]4O)c(C)c3oc2=O)ccn1
- MIC50 [1]: 0.5 µg/mL (≈ 0.807 µM)
- MIC90 [1]: 1 µg/mL (≈ 1.61 µM)
- MIC50 [2]: 0.5 µg/mL (≈ 0.807 µM)
- MIC90 [2]: 0.5 µg/mL (≈ 0.807 µM)

SMILES: CO[C@@H]1[C@@H](OC(=O)c2ccc(C)[nH]2)[C@@H](O)[C@H](Oc2ccc3c(O)c(NC(=O)Cn4c(-c5ccccn5)nc5ccccc54)c(=O)oc3c2C)OC1(C)C
- MIC50 [1]: 0.25 µg/mL (≈ 0.345 µM)
- MIC90 [1]: 0.5 µg/mL (≈ 0.691 µM)
- MIC50 [2]: 0.5 µg/mL (≈ 0.691 µM)
- MIC90 [2]: 0.5 µg/mL (≈ 0.691 µM)

SMILES: CCCn1cnc(C(=O)Nc2c(O)c3ccc(O[C@@H]4OC(C)(C)[C@H](OC)[C@@H](OC(=O)c5ccc(C)[nH]5)[C@H]4O)c(C)c3oc2=O)c1
- MIC50 [1]: 0.5 µg/mL (≈ 0.8 µM)
- MIC90 [1]: 0.5 µg/mL (≈ 0.8 µM)
- MIC50 [2]: 1 µg/mL (≈ 1.6 µM)
- MIC90 [2]: 1 µg/mL (≈ 1.6 µM)

SMILES: CO[C@@H]1[C@H](NC(=O)c2ccc(C)[nH]2)[C@@H](O)[C@H](Oc2ccc3c(O)c(NC(=O)c4ccc(O)c(CC=C(C)C)c4)c(=O)oc3c2C)OC1(C)C
- MIC50 [1]: > 128 µg/mL
- MIC90 [1]: > 128 µg/mL
- MIC50 [2]: 64 µg/mL (≈ 94.7 µM)
- MIC90 [2]: > 64 µg/mL

SMILES: CO[C@@H]1[C@@H](OC(=O)c2ccc(C)[nH]2)[C@@H](O)[C@H](Oc2ccc3c(O)c(NC(=O)c4csc(C)n4)c(=O)oc3c2C)OC1(C)C
- MIC50 [1]: 0.25 µg/mL (≈ 0.407 µM)
- MIC90 [1]: 0.25 µg/mL (≈ 0.407 µM)
- MIC50 [2]: 0.25 µg/mL (≈ 0.407 µM)
- MIC90 [2]: 0.5 µg/mL (≈ 0.815 µM)

SMILES: CO[C@@H]1[C@@H](OC(=O)NOCC(C)C)[C@@H](O)[C@H](Oc2ccc3c(O)c(NC(=O)c4ccc(O)c(CC=C(C)C)c4)c(=O)oc3c2C)OC1(C)C
- MIC50 [1]: 0.5 µg/mL (≈ 0.73 µM)
- MIC90 [1]: 1 µg/mL (≈ 1.46 µM)
- MIC50 [2]: 4 µg/mL (≈ 5.84 µM)
- MIC90 [2]: 16 µg/mL (≈ 23.4 µM)

SMILES: CO[C@@H]1[C@@H](OC(=O)c2[nH]c(C)cc2C)[C@@H](O)[C@H](Oc2ccc3c(O)c(NC(=O)c4ccc(O)c(CC=C(C)C)c4)c(=O)oc3c2C)OC1(C)C
- MIC50 [1]: 0.063 µg/mL (≈ 0.0912 µM)
- MIC90 [1]: 0.125 µg/mL (≈ 0.181 µM)
- MIC50 [2]: 0.25 µg/mL (≈ 0.362 µM)
- MIC90 [2]: 0.25 µg/mL (≈ 0.362 µM)

SMILES: CO[C@@H]1[C@@H](OC(=O)c2ccc(C)[nH]2)[C@@H](O)[C@H](Oc2ccc3c(O)c(NC(=O)c4cn(Cc5ccccn5)cn4)c(=O)oc3c2C)OC1(C)C
- MIC50 [1]: 0.25 µg/mL (≈ 0.371 µM)
- MIC90 [1]: 0.5 µg/mL (≈ 0.742 µM)
- MIC50 [2]: 0.5 µg/mL (≈ 0.742 µM)
- MIC90 [2]: 0.5 µg/mL (≈ 0.742 µM)

SMILES: CO[C@@H]1[C@@H](OC(=O)c2ccc(C)[nH]2)[C@@H](O)[C@H](Oc2ccc3c(O)c(NC(=O)c4ccnc(Oc5cccnc5)c4)c(=O)oc3c2C)OC1(C)C
- MIC50 [1]: 0.5 µg/mL (≈ 0.728 µM)
- MIC90 [1]: 1 µg/mL (≈ 1.46 µM)
- MIC50 [2]: 0.5 µg/mL (≈ 0.728 µM)
- MIC90 [2]: 1 µg/mL (≈ 1.46 µM)

SMILES: CO[C@@H]1[C@@H](OC(=O)c2ccc(C)[nH]2)[C@@H](O)[C@H](Oc2ccc3c(O)c(NC(=O)c4cn(Cc5cccc(C(F)(F)F)c5)cn4)c(=O)oc3c2C)OC1(C)C
- MIC50 [1]: 0.125 µg/mL (≈ 0.169 µM)
- MIC90 [1]: 0.25 µg/mL (≈ 0.338 µM)
- MIC50 [2]: 0.25 µg/mL (≈ 0.338 µM)
- MIC90 [2]: 0.5 µg/mL (≈ 0.675 µM)

SMILES: CCc1cc(C(=O)Nc2c(O)c3ccc(O[C@@H]4OC(C)(C)[C@H](OC)[C@@H](OC(=O)c5ccc(C)[nH]5)[C@H]4O)c(C)c3oc2=O)ccn1
- MIC50 [1]: 0.5 µg/mL (≈ 0.804 µM)
- MIC90 [1]: 1 µg/mL (≈ 1.61 µM)
- MIC50 [2]: 0.5 µg/mL (≈ 0.804 µM)
- MIC90 [2]: 1 µg/mL (≈ 1.61 µM)

SMILES: CO[C@@H]1[C@@H](OC(=O)c2ccc(C)[nH]2)[C@@H](O)[C@H](Oc2ccc3c(O)c(NC(=O)c4ccncc4)c(=O)oc3c2C)OC1(C)C
- MIC50 [1]: 4 µg/mL (≈ 6.74 µM)
- MIC90 [1]: 8 µg/mL (≈ 13.5 µM)
- MIC50 [2]: 1 µg/mL (≈ 1.68 µM)
- MIC90 [2]: 1 µg/mL (≈ 1.68 µM)

SMILES: CO[C@@H]1[C@@H](OC(=O)c2ccc(C)[nH]2)[C@@H](O)[C@H](Oc2ccc3c(O)c(NC(=O)c4cncn4C)c(=O)oc3c2C)OC1(C)C
- MIC50 [1]: 0.5 µg/mL (≈ 0.838 µM)
- MIC90 [1]: 0.5 µg/mL (≈ 0.838 µM)
- MIC50 [2]: 0.5 µg/mL (≈ 0.838 µM)
- MIC90 [2]: 1 µg/mL (≈ 1.68 µM)

SMILES: C#CCCNC(=O)O[C@H]1[C@@H](O)[C@H](Oc2ccc3c(O)c(NC(=O)c4ccc(O)c(CC=C(C)C)c4)c(=O)oc3c2C)OC(C)(C)[C@@H]1OC
- MIC50 [1]: 0.5 µg/mL (≈ 0.752 µM)
- MIC90 [1]: 0.5 µg/mL (≈ 0.752 µM)
- MIC50 [2]: 16 µg/mL (≈ 24.1 µM)
- MIC90 [2]: 32 µg/mL (≈ 48.1 µM)

SMILES: CC[C@H]1OC(=O)[C@H](C)[C@@H](O[C@H]2C[C@@](C)(OC)[C@@H](O)[C@H](C)O2)[C@H](C)[C@@H](O[C@@H]2O[C@H](C)C[C@H](N(C)C)[C@H]2O)[C@](C)(O)C[C@@H](C)CN(C)[C@H](C)[C@@H](O)[C@]1(C)O [AZITHROMYCIN]
- MIC50 [1]: > 128 µg/mL
- MIC90 [1]: > 128 µg/mL
- MIC50 [2]: 0.25 µg/mL (≈ 0.334 µM)
- MIC90 [2]: 8 µg/mL (≈ 10.7 µM)

SMILES: CO/N=C(\C(=O)N[C@@H]1C(=O)N2C(C(=O)O)=C(CSc3nc(=O)c(O)nn3C)CS[C@H]12)c1csc(N)n1 [CEFTRIAXONE]
- MIC50 [1]: 1 µg/mL (≈ 1.8 µM)
- MIC90 [1]: > 128 µg/mL
- MIC50 [2]: 0.008 µg/mL (≈ 0.0144 µM)
- MIC90 [2]: 0.25 µg/mL (≈ 0.451 µM)

SMILES: O=c1ccc2ncc(=O)n3c2n1C[C@H]3CN1CCC(NCc2cc3c(cn2)OCCC3)CC1 [GEPOTIDACIN]
- solubility ([3]; buffer): 67 µM (≈ 30.1 µg/mL)
- Stability [4]: 107%
- Papp [5]: 4.19 ×10⁻⁶ cm/s
- MIC90 [6]: 0.5 µg/mL (≈ 1.11 µM)
- solubility ([7]; buffer): 63.4 µM (≈ 28.4 µg/mL)

SMILES: CO[C@@H]1[C@@H](OC(N)=O)[C@@H](O)[C@H](Oc2ccc3c(O)c(NC(=O)c4ccc(O)c(CC=C(C)C)c4)c(=O)oc3c2C)OC1(C)C [NOVOBIOCIN]
- MIC50 [1]: 0.25 µg/mL (≈ 0.408 µM)
- MIC90 [1]: 0.25 µg/mL (≈ 0.408 µM)
- MIC50 [2]: 1 µg/mL (≈ 1.63 µM)
- MIC90 [2]: 2 µg/mL (≈ 3.26 µM)

SMILES: CC[C@H]1OC(=O)[C@@](C)(F)C(=O)[C@H](C)[C@@H](O[C@@H]2O[C@H](C)C[C@H](N(C)C)[C@H]2O)[C@](C)(OC)C[C@@H](C)C(=O)[C@H](C)[C@H]2N(CCCCn3cc(-c4cccc(N)c4)nn3)C(=O)O[C@]12C [SOLITHROMYCIN]
- solubility ([3]; JP2 solution, read-out: solubility): 49.4 µM (≈ 41.7 µg/mL)
- Stability [4]: 104%
- Papp [5]: 0.653 ×10⁻⁶ cm/s
- MIC90 [6]: 0.25 µg/mL (≈ 0.296 µM)
- solubility ([7]; JP1 solution, read-out: solubility): > 80 µM
